In patent US6569878B1, “Substituted 4-amino-thiazol-2-yl compounds as cyclin-dependent kinase inhibitors” (Agouron Pharmaceuticals Inc., priority 1997, dated 2003):
Where a name gives a salt, the structure may show the parent alone.

Columns and labels:
[1] = target: T1, complex of human CDK4 and cyclin D3 (Homo sapiens, UniProt P11802); assay: Inhibition of CDK4/cyclin D retinoblastoma kinase activity (D-type cyclin is D3); format: biochemical; settings: superscript a: D-type cyclin is D3; apparent Ki; read-out: Ki CDK 4/D
T1 construct: made in house; host or cells: insect cells, co-infected with baculovirus
T1 sequence (P11802 whole entry): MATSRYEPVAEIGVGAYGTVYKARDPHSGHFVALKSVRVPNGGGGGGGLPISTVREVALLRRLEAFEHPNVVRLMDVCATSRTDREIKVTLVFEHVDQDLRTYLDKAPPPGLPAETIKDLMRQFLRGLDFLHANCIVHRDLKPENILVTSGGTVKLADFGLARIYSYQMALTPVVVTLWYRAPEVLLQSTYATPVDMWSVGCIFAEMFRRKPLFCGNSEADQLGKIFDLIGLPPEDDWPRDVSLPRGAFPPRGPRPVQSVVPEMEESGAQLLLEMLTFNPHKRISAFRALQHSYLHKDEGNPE
T1 sequence (P30281 whole entry partner): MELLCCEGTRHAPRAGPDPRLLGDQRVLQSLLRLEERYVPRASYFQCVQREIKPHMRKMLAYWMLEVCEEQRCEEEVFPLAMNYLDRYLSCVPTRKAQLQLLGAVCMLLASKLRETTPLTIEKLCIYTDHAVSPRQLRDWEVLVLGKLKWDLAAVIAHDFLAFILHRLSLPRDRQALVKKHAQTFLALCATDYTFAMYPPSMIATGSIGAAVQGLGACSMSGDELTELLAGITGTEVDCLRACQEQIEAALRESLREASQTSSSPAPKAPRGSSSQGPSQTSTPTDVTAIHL
How it was run: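 Radiometric assay: [32P]- or [33P]ATP phosphate incorporation into Rb substrate at 30°C for 20 min, stopped with EDTA, filter-captured and phosphorimaged.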

[2] = target: T2, CDK2/cyclin A (Homo sapiens, UniProt P24941); assay: Inhibition of CDK2/cyclin A retinoblastoma kinase activity; format: biochemical; settings: read-out: Ki CDK 2/A
T2 construct: made in house; host or cells: CDK2: insect cells (baculovirus); cyclin A: E. coli, then limited proteolysis
How it was run: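 Baculovirus-expressed CDK2 with excess proteolyzed cyclin A (or purified complex), 150 nM or 5 nM, phosphorylating an Rb fragment with 25 μM [32/33P]ATP, pH 7.4, 30° C, 20 min. Filter-captured radioactivity by phosphorimager; apparent Ki from fits to competitive or tight-binding competitive inhibition using measured ATP Km.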

[3] = target: T3, human CDK1 (cdc2) and cyclin B (Homo sapiens, UniProt P06493); assay: Inhibition of CDK1(cdc2)/cyclin B histone H1 kinase activity; format: biochemical; settings: read-out: Ki CDK 1/B
T3 construct: purchased New England Biolabs (Beverly Mass.)
T3 sequence (P06493 whole entry): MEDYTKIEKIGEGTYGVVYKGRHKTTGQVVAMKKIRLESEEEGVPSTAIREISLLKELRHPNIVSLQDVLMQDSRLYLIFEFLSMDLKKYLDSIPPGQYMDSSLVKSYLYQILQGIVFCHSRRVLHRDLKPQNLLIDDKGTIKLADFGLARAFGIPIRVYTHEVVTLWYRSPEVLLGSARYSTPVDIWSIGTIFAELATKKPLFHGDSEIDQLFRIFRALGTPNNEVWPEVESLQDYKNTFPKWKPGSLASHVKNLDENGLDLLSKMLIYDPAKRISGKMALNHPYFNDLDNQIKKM
T3 sequence (P14635 whole entry partner): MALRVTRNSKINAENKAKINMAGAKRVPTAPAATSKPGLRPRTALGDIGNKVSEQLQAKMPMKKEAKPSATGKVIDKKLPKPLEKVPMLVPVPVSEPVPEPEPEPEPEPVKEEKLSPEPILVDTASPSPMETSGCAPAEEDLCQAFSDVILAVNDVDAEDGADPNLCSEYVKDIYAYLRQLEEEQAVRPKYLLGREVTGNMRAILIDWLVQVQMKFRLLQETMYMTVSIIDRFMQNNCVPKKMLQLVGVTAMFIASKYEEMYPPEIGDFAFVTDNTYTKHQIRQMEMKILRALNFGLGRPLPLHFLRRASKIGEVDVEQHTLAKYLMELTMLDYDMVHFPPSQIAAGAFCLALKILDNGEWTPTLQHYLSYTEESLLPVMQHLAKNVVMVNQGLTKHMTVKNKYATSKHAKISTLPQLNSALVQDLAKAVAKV
How it was run: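 CDK1/cyclin B (commercial, or CDK1/GST-cyclin B1 from co-infected insect cells) phosphorylated histone H1 with 25 μM [32/33P]ATP at pH 7.4, 30° C for 20 min, 2% DMSO. Product captured on phosphocellulose and read by phosphorimager; apparent Ki from competitive or tight-binding fits, with Km for ATP determined.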

[4] = tested on: HCT116; assay: Inhibition of cell growth, MTT assay, HCT116; format: cell-based, human; settings: Homo sapiens, HCT-116
How it was run: (§1)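 Cells rested 4 h after plating, then exposed to graded compound concentrations in 0.5% (v/v) DMSO for four to six days (cell-type dependent) at 37° C, 5% CO2. Viability was read by MTT (0.2 mg/mL final, 4 h at 37° C), with DMSO-solubilized formazan measured at 540 nm.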

[5] = tested on: U2-OS; assay: Inhibition of cell growth, MTT assay, U2-OS; format: cell-based; settings: Homo sapiens, U2OS
How it was run: as §1

[6] = tested on: Saos-2; assay: Inhibition of cell growth, MTT assay, Saos-2; format: cell-based; settings: Homo sapiens; Saos-2, MTT assay
How it was run: as §1

[7] = tested on: COLO-205; assay: Inhibition of cell growth, MTT assay, COLO-205; format: cell-based; settings: Homo sapiens; COLO-205, MTT assay
Experimental: (§2) The water-insoluble purple formazan product was then detected spectrophotometrically. […] Plates were incubated for four hours before addition of inhibitor compounds. Different concentrations of inhibitor compounds were added in 0.5% (v/v) dimethylsulfoxide (15 μL/well), and cells were incubated at 37° C. (5% CO2) for four to six days (depending on cell type). At the end of the incubation, MTT was added to a final concentration of 0.2 mg/mL, and cells were incubated for 4 hours more at 37° C. After centrifugation of the plates and removal of medium, the absorbance of the formazan (solubilized in dimethylsulfoxide) was measured at 540 nm.

[8] = tested on: M14 melanoma; assay: Inhibition of cell growth, MTT assay, M14 melanoma; format: cell-based; settings: Homo sapiens
Experimental: as §2

[9] = tested on: RXF-393; assay: Inhibition of cell growth, MTT assay, RXF-393; format: cell-based; settings: Homo sapiens; RXF-393, MTT assay
Experimental: as §2

[10] = tested on: MCF-7; assay: Inhibition of cell growth, MTT assay, MCF-7; format: cell-based; settings: MCF-7, MTT assay; for IC50 / IC90: Homo sapiens, MCF7; for % inhibition of growth in parentheses after >25: concentration not given
Experimental: as §2

[11] = tested on: MDA-MB-468; assay: Inhibition of cell growth, MTT assay, MDA-MB-468; format: cell-based; settings: Homo sapiens; MDA-MB-468, MTT assay
Experimental: as §2

[12] = tested on: phosphorylation of the retinoblastoma protein (pRb) in HCT-116 cells; assay: pRb immunoblotting (anti-Rb antibody); format: cell-based, human; settings: five micromolar of each compound for 12 hours, western blot
Experimental: (§3) The ability of compounds to inhibit phosphorylation of the retinoblastoma protein (pRb) was assessed by western blot analysis. An anti-Rb antibody was used to measure the conversion of hyper-phosphorylated pRb to hypo-phosphorylated pRb.
(§4) Human colon tumor cells (HCT-116 cells; 5×10^6) were plated on […] dishes and allowed to grow overnight. Five micromolar of each compound was added for 12 hours. The cells were then collected and centrifuged. The cell pellets were lysed by the addition of 100 μL lysis buffer (50 mM HEPES (pH 7.0), 250 mM NaCl, 5 mM ethylenediaminetetraacetic acid, 0.1% Nonidet P-40, 1 mM dithiothreitol, 2 mM sodium pyrophosphate, 1 mM sodium orthovanadate, 1 μg/ml aprotonin, 1 μg/ml leupeptin, 50 μg/ml phenylmethylsulfonyl fluoride). Forty micrograms of protein were separated by sodium dodecyl sulfate-polyacrylamide gel electrophoresis (SDS-PAGE) on a 6% gel. The proteins were transferred to nitrocellulose and blocked with 5% blocking buffer in Tris-buffered saline overnight. The anti-Rb antibody (Pharmingen), the anti-phospho-Rb (Ser 780) antibody (MBL), and secondary antibody were incubated for 1 hour at room temperature followed by three wash steps in 0.01% Tween-20 in Tris-buffered saline. The Rb protein was detected using chemiluminescence according to the manufacturer (Amersham).

[13] = tested on: pRb phosphorylation at serine 780 in HCT-116 cells; assay: pRb immunoblotting (anti-phospho-Rb (ser780) antibody); format: cell-based, human; settings: five micromolar of each compound for 12 hours, western blot, anti-phospho-Rb (Ser 780) antibody
Experimental: as §3, §4

Row | Structure (SMILES) | Ki [1] [nM] | Ki [2] [nM] | Ki [3] [nM] | IC90 [4] [nM] | IC50 [5] [nM] | IC90 [5] [nM] | IC50 [6] [nM] | IC90 [6] [nM] | IC50 [7] [nM] | IC90 [7] [nM] | IC50 [8] [nM] | IC90 [8] [nM] | IC50 [9] [nM] | IC90 [9] [nM] | IC50 [10] [nM] | IC90 [10] [nM] | IC50 [11] [nM] | Inhibits pRb phosphorylation [12] | Inhibits pRb (ser 780) phosphorylation [13] | IC50 [4] [nM] | other results
1 | Cc1ccsc1C(=O)c1sc(Nc2ccc(S(N)(=O)=O)cc2)nc1N [C(48), 4-[4-Amino-5-(3-methyl-thiophene-2-carbonyl)-thiazol-2-ylamino]-benzenesulfonamide] | 14 | 11.1 | 15 | 700 | 1000 | 1500 | 420 | 750 | 290 | 600 | 600 | 1800 | 800 | 1600 | 2600 | > 25000 | 260 | + | + |  | % inhibition of growth in parentheses after >25 [10]: (82%); IC90 [11]: 600 nM
2 | Cc1cc(C(=O)c2sc(Nc3ccc(S(N)(=O)=O)cc3)nc2N)c(C)s1 [C(50), 4-[4-Amino-5-(2,5-dimethyl-thiophene-3-carbonyl)-thiazol-2-ylamino]-benzenesulfonamide] | 25.5 | 5.6 | 29 | 1600 | 2000 | 3000 | 1300 | 2800 |  |  |  |  |  |  | 3000 | > 25000 | 480 | + | + | 610 | % inhibition of growth in parentheses after >25 [10]: (88%); IC90 [11]: 1500 nM
3 | CN1CCN(c2ccc(Nc3nc(N)c(C(=O)c4c(Cl)cc(C(F)(F)F)cc4Cl)s3)cc2)CC1 [C(81)] | 12.3 | 872 | 1240 | 20000 | 7900 | 12000 | 13000 | 22000 | > 5000 |  | 3800 | > 5000 | > 5000 |  | 3900 | 16000 | 4700 | + | + | 10000 | IC90 [11]: 9300 nM
4 | Nc1nc(Nc2ccc(S(N)(=O)=O)cc2)sc1C(=O)c1c(F)cccc1F [C(85), 4-[4-Amino-5-(2,6-difluoro-benzoyl)-thiazol-2-ylamino]-benzenesulfonamide] | 13 | 5.7 | 2.2 | 560 | 1700 | 2800 | 280 | 670 | 240 | 580 | 710 | 2200 | 1200 | 3000 | 3900 | 13000 | 220 | + | + | 250 | IC90 [11]: 590 nM
5 | Cc1ccsc1C(=O)c1sc(Nc2ccc(N3CCN(C)CC3)cc2)nc1N [C(87), {4-Amino-2-[4-(4-methyl-piperazin-1-yl)-phenylamino]-thiazol-5-yl}-3-methyl-thiophen-2-yl-methanone] | 9 | 607 | 826 | 2900 | 1800 | 4000 | 2000 | 4000 | 390 | 1700 | 1500 | 4200 | 1500 | 2300 |  |  |  | + | + | 950 | 
6 | COc1ccc(Nc2nc(N)c(C(=O)c3ccccc3C#N)s2)cc1 [F, 2-[4-Amino-2-(4-methoxy-phenylamino)-thiazole-5-carbonyl]-benzonitrile] | 40.7 | 350 | 200 | 2600 | 1000 | 20000 | 1000 | 1600 |  |  |  |  |  |  |  |  |  | − | − | 1000 | 
7 | Cc1ccsc1C(=O)c1sc(Nc2ccc(N3CCNCC3)cc2)nc1N [H(1), [4-Amino-2-(4-piperazin-1-yl-phenylamino)-thiazol-5-yl]-(3-methyl-thiophen-2-yl)-methanone Trihydrochloride] | 8.2 | 370 | 681 | 1400 | 850 | 1500 | 730 | 1400 | 200 | 600 | 2400 | 9000 | 460 | 880 |  |  |  | + | + | 580 | 
